# What was measured:
# AsPC1 = experiment: MTS cell proliferation assay, AsPC1; format: cell-based, human; conditions: Homo sapiens, ASPC1, 72 h, read-out: IC50 AsPC1 (Table 4)
# Outline: (§1)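 Cells seeded at 2×10^3 cells/well and exposed 72 h to DMSO or 0.01–100 μM STAT3 inhibitor, quadruplicate wells per concentration. Proliferation read by MTS reduction, OD 550 nm after 1 h at 37 °C.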
# Panc-1 = experiment: MTS cell proliferation assay, Panc-1; format: cell-based, human; conditions: Homo sapiens, PANC-1, 72 h, read-out: IC50 Panc-1 (Table 4)
# Outline: as §1
# [1] = system: STAT family, STAT3-dependent genes and JAKs in MDA-MB-231 cells; experiment: Western blot analysis, MDA-MB-231 cells; format: cell-based, human; conditions: 24 h; Example 3 numbering
# Method: Blocking STAT3 signaling in many different tumor cells leads to induce growth arrest and apoptosis (Turkson, J. et al., 2000; Bromberg, J., 2002; Zhang, X. et al., 2012).
# Western Blot Analysis. Protein levels were determined by Western blot using the previously described methods (Shen, Q. et al., 2008). Total cell lysates were prepared from MDA-MB-231 cells. Protein concentrations were measured using the BCA Protein Assay Reagent (Pierce, Rockford, Ill., USA). Equal amounts of total cellular protein extract (40 μg) were resuspended in denaturing sample loading buffer (0.5 M Tris-HCl, pH 6.8, 10% SDS, 0.1% bromophenol blue, and 20% glycerol), separated by electrophoresis on a 10% polyacrylamide SDS-PAGE gel and then electrophoretically transferred to a nitrocellulose membrane (Thermo Scientific, Ill., USA) at 100 Volts for 1 h at 4° C. The membrane was then incubated in a blocking solution containing 5% non-fat milk and 1% Tween 20 in TBS for 1 h. The membrane was then incubated with antibodies specific for: phospho-STAT3-pY705 (1:3000, Epitomics, #2236-1), STAT3 (1:2000, Cell Signaling, #4904), Caspase-3-cleaved (1:2000, Epitomics, #1476-1), Cyclin D1 (1:10000, Epitomics, #2261-1) and β-actin (1:10000, Sigma, clone AC-15). An anti-rabbit or anti-mouse secondary antibody (Amersham, Piscataway, N.J.) was used at 1:4000 dilution. The Western blotted bands were visualized using ECL procedure according to the manufacturer's instructions (Amersham).
# [2] = system: MDA-MB-231 xenograft tumors; experiment: MDA-MB-231 xenograft tumor growth in nude mice; format: in vivo; conditions: oral gavage daily for 14 days
# MDA-MB-231 cells = experiment: Apoptosis assay (annexin V, flow cytometry); format: cell-based, human; conditions: dose-dependent; Example 3 numbering
# Method: Cell Cycle Assay and Apoptosis Assay: Cell cycle and apoptosis kits (#MCH100106 and #MCH100105, Millipore, Mass.) were used. […] 24 and 48 h after drug treatment, both adherent and floating cells were collected, washed once with PBS and fixed in cold ethanol for at least 4 h before cell cycle analysis. The fixed cells were then washed twice with PBS and resuspended in 200 μL cell cycle detection reagent, incubated for 30 minutes in dark at room temperature. Cell cycle distribution was measured by the Muse Cell Analyzer with Muse™ Cell Cycle. Similarly, MDA-MB-231 cells with the same treatments were prepared for apoptosis assay. After washing with PBS, resuspended cells were incubated with 100 μL PBS containing 1% BSA and 100 μL Annexin V and dead cell detection reagent in dark for 20 minutes at room temperature. Apoptosis was measured immediately using the Muse Cell Analyzer with the Muse™ Apoptosis Program.
# [3] = system: MDA-MB-231 and MDA-MB-468 cells; experiment: Colony formation assay; format: cell-based, human; conditions: 15 days, starting at 0.625 μM
# Method: Colony Formation Assay: MDA-MB-468 and MDA-MB-231 cells were seeded in 6-well plates with a density of 800-3000 cells/well, respectively. […] The culture media with the compounds were changed every 72 h. After two weeks, the wells were washed twice with PBS buffer and 2 mL of 0.01% crystal violet staining buffer was added and incubated for 10 min. The wells were then washed with PBS for 5 min for three times, and allowed to dry. Photographs were then taken and the density of the entire culture well area was digitally measured using the GelCount™ instrument (Oxford Optronix, UK). Experiments were performed in triplicate and the density data were analyzed with one-way ANOVA using GraphPad Prizm 6 software. Error bars represent standard deviation.
smiles,measurement,setting,value
"O=C(Nc1ccc([N+](=O)[O-])cc1Cl)c1cc(Cl)ccc1O [niclosamide, reference compound]",IC50,AsPC1,1470 nM
same,IC50,Panc-1,1730 nM
same,phosphorylated STAT3 at Tyr-705 (Example 3),[1],suppressed
same,total STAT3 level (Example 3),[1],reduced
same,"reduction in tumor growth, 75 mg/kg",[2],55%
same,"apoptosis, annexin V (Example 3)",MDA-MB-231 cells,activated apoptosis
same,colony formation,[3],significant suppression of colony formation
